According to patent US9381238B2 (priority 2010, dated 2016):

Assays:
[1] = tested on: H3N2 A/Moscow/10/99 virus; experiment: Copies of viral genome M/ml in supernatant of infected A549 cells by real-time RT-qPCR; type: cell-based, H3N2 A/Moscow/10/99 virus in human A549 cells; details: for times more copies of genome in supernatant than control without Nutlin-3: A549, 10 hpi (single viral cycle); for times more copies M/ml of supernatant than the control: MOI 10^−3, pretreatment
Method: (§1) FIGS. 2 to 7 show the observed amounts of copies of viral genome M/ml in the culture supernatant (M for the segment of viral genome encoding the M1 and M2 viral proteins), with various culture conditions and after various infection times.
(§2) For all the following examples, the experiments were carried out at a temperature of 37° C. The culture medium used is DMEM (Ref 41966, Gibco), supplemented with trypsin (1 ug/mL, Sigma) during the infections.
In order to gain a more precise idea, the quantification of the number of copies of viral genome M/ml of supernatant was then carried out, by extraction of the viral RNAs and quantification by real-time RT-qPCR (FIG. 2B). At 48 hpi, 6.66×10^6 copies M/ml were measured in the absence of Nutlin-3, compared with 2.44×10^8 copies M/ml in the presence of Nutlin-3, i.e. a gain of more than 36-fold in terms of viral production. The same calculation performed at 72 hpi indicates a gain of 88-fold in favor of the conditions where Nutlin-3 is used.
The A549 cells were infected with various amounts of virus (MOI 0.01, 0.1 and 1), in the presence or absence of Nutlin-3, and the amount of copies M/ml of supernatant was measured by RT-qPCR after a single viral cycle (10 hpi) or after several viral cycles (28 hpi). The cells were brought into contact with Nutlin-3, either 14 h before the infection (T=−14 h), or immediately at the time of infection (T=0 h) (FIG. 3). In any event, the Nutlin-3 is added in one go.
A similar experiment was carried out with an MOI of 10^−3, while modifying the time at which the pretreatment is carried out (14 h compared with 10 h before infection). At 48 hpi, Nutlin-3 makes it possible to obtain 1.5, 5.7 and 40 times more copies M/ml of supernatant than the control for respective concentrations of 0.1, 1 and 10 μM (FIG. 4).
This molecule was used at concentrations of 2 and 20 μM with an MOI of 10^−3.

[2] = tested on: H3N2 A/Moscow/10/99 virus; experiment: Cytopathic effects induced by influenza virus on A549 cell layer (photon microscopy); type: cell-based, H3N2 A/Moscow/10/99 virus in human A549 cells; details: A549, 10 μM, MOI 2×10^−3, from 24 hpi onward, molecule added 14 h before infection and retained (FIG. 1)
Method: as §2
A549 cells (ATCC, American Type Culture Collection CCL185) are cells derived from a lung carcinoma. […] Several ex-vivo studies on lung tissues from infected patients have shown that epithelial cells of this type probably constitute the primary influenza virus infection site (Nicholls et al. Nat. Med. 2007 February; 13(2):147-9, van Riel et al. Science. 2006 Apr. 21; 312(5772):399). These cells are therefore considered to be relevant for studying influenza viruses and are, consequently, very widely used in the field of fundamental research on influenza viruses.
The observation and monitoring of the cytopathic effects induced by the virus over time generally allow a first evaluation of the degree of infection of the cell layer. The cytopathic effect induced by the virus is characterized in particular by fusion of the infected cells with one another, forming multinucleated cell structures (syncytia). By photon microscopy, observation of the amount and of the scale of these structures on the cell layer makes it possible to obtain an estimation of the degree of infection.

[3] = tested on: H3N2 A/Moscow/10/99 virus; experiment: Infectious titer (TCID50/ml) in supernatant of infected A549 cells; type: cell-based, H3N2 A/Moscow/10/99 virus in human A549 cells; details: A549, from 24 hpi onward, presence vs absence of Nutlin-3 (FIG. 2A)
[4] = tested on: H3N2 A/Moscow/10/99 virus; experiment: Copies of viral genome M/ml in supernatant of infected MDCK cells by RT-qPCR; type: cell-based, H3N2 A/Moscow/10/99 virus in MDCK cells (dog); details: MOI 10^−3, 0.1, 1 and 10 μM
Method: as §1, §2
The MDCK line (ATCC No. CCL-34) is the most widely used line for the laboratory production of influenza virus. It is a cell line which is also registered and with which batches of vaccine have been produced by Novartis and Solvay.
At 24 hpi, up to 19 times more copies of genome M/ml are obtained in the presence of Nutlin-3 compared with the control.

| SMILES | times more copies of genome M in the supernatant compared with the control ([1]; A549, 48 hpi, MOI 10^−3, 2 μM (FIG. 6)) | times more copies of genome M in the supernatant compared with the control ([1]; A549, 72 hpi, MOI 10^−3, 20 μM (FIG. 6)) | cytopathic effect compared with infected cells without Nutlin-3 [2] | gain in infectious titer (TCID50/ml) in the supernatant [3] | times more copies of genome in supernatant than control without Nutlin-3 ([1]; treatment started at T=0, MOI 0.1 (FIG. 3)) [times] | times more copies of genome in supernatant than control without Nutlin-3 ([1]; treatment started at T=0, MOI 1 (FIG. 3)) [times] | gain in viral production (copies M/ml) vs absence of Nutlin-3 ([1]; A549, 48 hpi (FIG. 2B)) | times more copies M/ml of supernatant than the control ([1]; A549, 48 hpi, 0.1 μM (FIG. 4)) [times] | times more copies M/ml of supernatant than the control ([1]; A549, 48 hpi, 1 μM (FIG. 4)) [times] | times more copies M/ml of supernatant than the control ([1]; A549, 48 hpi, 10 μM (FIG. 4)) [times] | copies of viral genome M/ml of supernatant ([1]; A549, 48 hpi, in the presence of Nutlin-3 (FIG. 2B)) | gain in viral production (copies M/ml) vs absence of Nutlin-3 ([1]; A549, 72 hpi (FIG. 2B)) [fold] | times more copies of genome M/ml compared with the control ([4]; 24 hpi, pretreatment 14 h before infection (FIG. 5)) | effect on viral titer (copies of genome M/ml) in cell supernatants ([4]; pretreatment 14 h before infection, after several consecutive viral cycles (FIG. 5)) |
| --- | --- | --- | --- | --- | --- | --- | --- | --- | --- | --- | --- | --- | --- | --- |
| Cc1ccc2ccc(C(Nc3ccccc3)c3ccccc3)c(O)c2n1 (centres unmarked) [NSC66811, 2-methyl-7-[phenyl(phenylamino)methyl]-8-quinolinol] | approximately 6 times | approximately 5 times | – | – | – | – | – | – | – | – | – | – | – | – |
| COc1ccc(C2=NC(c3ccc(Cl)cc3)C(c3ccc(Cl)cc3)N2C(=O)N2CCNC(=O)C2)c(OC(C)C)c1 (racemic) [Nutlin-3, (±)-4-[4,5-bis(4-chlorophenyl)-2-(2-isopropoxy-4-methoxy-phenyl)-4,5-dihydroimidazole-1-carbonyl]piperazin-2-one] | – | – | more marked cytopathic effect | gain of one log 10 difference | 11 | 50 | more than 36 fold | 1.5 | 5.7 | 40 | 2.44×10^8 copies M/ml | 88 | up to 19 times | greatly increases the viral titer |
